From patent US10595532B2, “Ophthalmic contact lens solutions containing forms of vitamin B” (FXS Ventures, LLC, priority 2000, dated 2020)
Where a name gives a salt, the structure may show the parent alone.

What was measured:
Type in all cases: cell-based
C. albicans [1] = assay: in vitro microbicidal activity of dexpanthenol solutions in 0.25% Bis-Tris Propane buffer preserved with PHMB (Example 2); conditions: PHMB 0.5 ppm; for Log Reduction Calibicans 4 hour: C. albicans, room temperature, Bis-Tris Propane 0.25%, Cremophor 0.20%, Inositol 3.0%, Allantoin 0.1%, pH 7.2, dexpanthenol 0.1% or none
Description: (§1) Formulations containing dexpanthenol were prepared in a 0.25% Bis-Tris Propane buffer. The solutions were made isotonic with sodium chloride and preserved with polyhexamethylene biquanide at 0.00005%. The pH was adjusted to 7.2 with either 1 N sodium hydroxide or 1 N hydrochloric acid. The in vitro microbicidal activity of the solutions was determined by exposing C. albicans to 10 ml of each solution at room temperature for 4 hours. Subsequently, an aliquot of each solution was serial diluted onto agar plates and incubated for 48 hours at elevated temperatures. At the conclusion of the incubation period the plates are examined for the development of colonies. The log reduction was determined based on a comparison to the inoculum control. The following table provides the results of the in vitro studies.

E. coli [2] = assay: in vitro anti-microbial activity of vitamin B solutions in 0.5% Tris buffer with PHMB (Example 3); conditions: for effect on the preservative (PHMB): 0.5% vitamin B, 1 ppm PHMB, E. coli 1 hour; for Log Reduction at 1 hr: E. coli, room temperature, 0.5% Tris, 0.6% sodium chloride, pH 7.2, 1 ppm PHMB, vitamin B 0.5% or none
Description: (§2) Formulations containing Dexpanthanol (Spectrum), Pyridoxine HCl (Spectrum) Thiamine HCl (Spectrum), and no Vitamin B control were prepared in a 0.5% Tris buffer containing 0.6% sodium chloride. The pH was adjusted with 1 N HCl to a final pH of 7.2. Polyhexamethylene biquanide (PHMB) at 0.0001% was added to each formulation. The in vitro anti-microbial activity of the solutions was determined by exposing E. coli to 10 ml of each solution at room temperature for 1 hours. Subsequently, an aliquot of each solution was serial diluted onto agar plates and incubated for 48 hours at elevated temperatures. At the conclusion of the incubation period the plates are examined for the development of colonies. The log reduction was determined based on a comparison to the inoculum control.

E. coli [3] = assay: in vitro anti-microbial activity of vitamin B solutions in 0.5% Tris buffer with benzalkonium chloride (Example 4); conditions: for effect on the preservative (BAK): 0.5% vitamin B, 25 PPM BAK, E. coli 1 hour; for Log Reduction at 1 hr: E. coli, 0.5% Tris
Description: as §2, with “Polyhexamethylene biquanide (PHMB) at 0.0001% was added to each formulation.” left out, “hour.” for “hours.”, “control. The following table provides the results of the in vitro studies.” for “control.”

C. albicans [4] = assay: in vitro microbicidal activity of vitamin B solutions in 0.2% phosphate buffer preserved with PHMB (Example 1); conditions: PHMB 0.0001%; for activity against C. albicans as compared to the buffer control: 0.5% additive, 4 hours; for 4 Hour Log Reduction: C. albicans, room temperature, additive 0.5% in 0.2% phosphate buffer, isotonic, pH 7.2, vs inoculum control
Description: as §1, with “Pyridoxine HCl (Spectrum) and Thiamine HCl (Fisher)” for “dexpanthenol”, “0.2% phosphate” for “0.25% Bis-Tris Propane”, “biguanide” for “biquanide”, “0.0001%.” for “0.00005%.”, “control.” for “control. The following table provides the results of the in vitro studies.”

[5] = room temperature, 0.6% sodium chloride, pH 7.2, 25 PPM BAK, vitamin B 0.5%

Row | Compound | Log Reduction Calibicans 4 hour (C. albicans [1]) | preservative efficacy over a solution with a preservative alone (C. albicans [1]; dexpanthenol 0.1%, C. albicans 4 hours) | effect on the preservative (PHMB) (E. coli [2]) | Log Reduction at 1 hr (E. coli [2]) | effect on the preservative (BAK) (E. coli [3]) | Log Reduction at 1 hr (E. coli [3]; [5]) | activity against C. albicans as compared to the buffer control (C. albicans [4]) | 4 Hour Log Reduction (C. albicans [4]) | Log Reduction at 1 hr (E. coli [3]; no vitamin B, row printed with 1 ppm PHMB)
1 | CC(C)(CO)[C@@H](O)C(=O)NCCCO [Dexpanthenol, dexpanthenol] | 4.9 | improved preservative efficacy | enhancement of the preservative | 4.82 | enhancement of the preservative | >5.12 |  |  | 
2 | Cc1ncc(CO)c(CO)c1O.Cl [Pyridoxine HCl] |  |  | enhancement of the preservative | 4.34 | enhancement of the preservative | >5.12 | improvement in the activity | 2.0 | 
3 | Cc1ncc(C[n+]2csc(CCO)c2C)c(N)n1 [Thiamine HCl] |  |  | enhancement of the preservative | 5.12 |  | 3.30 | improvement in the activity | 1.0 | 
4 | polyhexamethylene biguanide [PHMB] | 3.8 |  |  | 0.42 |  |  |  |  | 0.42
